Measured values: patent publication US20210254272A1, “TEXTILES HAVING ANTIMICROBIAL PROPERTIES” (Livinguard AG, priority 2015, published 2021)

Assay: Leaching test: 100 g fabric soaked in 10 liters stagnant distilled water, 3 days (72 hours)
Assay type: physicochemical
Conditions: for Leaching of active ingredients / Leaching Test-Leaching of active ingredients: pad process; for Leaching of active ingredients: cured 180° C. 2 min; for Leaching Test-Leaching of active ingredients: 2 min
Description: (§1) The test procedure for leaching was as follows: 100 g (grams) of fabric as well as control fabrics were soaked in 10 liters of stagnant distilled water in a closed wide mouth jar. After 3 days (72 hours), the water samples were tested for leached substances as per standard analytical methods.
as §1, with “methods. A weight of 100 g fabric was chosen because in the preferred embodiment of the water filter as described further below, each filter comprises a strip of fabric with 210 g/m^2, 3 meters long and 0.16 meters wide, which corresponds to 100 g of fabric.” for “methods.”

Silver
Leaching of active ingredients (in ppm) (exhaust 80° C., 60 min, dosage 1% o.w.f (test up to 5% o.w.f)): 3.5 ppm
Leaching of active ingredients (in ppm) (exhaust 80° C., 60 min, dosage 2% o.w.f): 19 ppm
Leaching of active ingredients (in ppm) (exhaust 80° C., 60 min, dosage 3% o.w.f): 36 ppm
Leaching of active ingredients (in ppm) (exhaust 80° C., 60 min, dosage 4% o.w.f): 41 ppm
Leaching of active ingredients (in ppm) (exhaust 80° C., 60 min, dosage 5% o.w.f): 69 ppm
Leaching of active ingredients (in ppm) (exhaust 80 ° C., solution dosage 1% o.w.f, process time 10 min): 50 ppm
Leaching of active ingredients (in ppm) (exhaust 80 ° C., solution dosage 1% o.w.f, process time 20 min): 37 ppm
Leaching of active ingredients (in ppm) (exhaust 80 ° C., solution dosage 1% o.w.f, process time 30 min): 28 ppm
Leaching of active ingredients (in ppm) (exhaust 80 ° C., solution dosage 1% o.w.f, process time 40 min): 22 ppm
Leaching of active ingredients (in ppm) (exhaust 80 ° C., solution dosage 1% o.w.f, process time 50 min): 19 ppm
Leaching of active ingredients (in ppm) (exhaust 80 ° C., solution dosage 1% o.w.f, process time 55 min): 8 ppm
Leaching of active ingredients (in ppm) (exhaust 80 ° C., solution dosage 1% o.w.f, process time 60 min): 4 ppm
Leaching of active ingredients (in ppm) (exhaust 80 ° C., solution dosage 1% o.w.f, process time 70 min): 4 ppm
Leaching of active ingredients (in ppm) (exhaust 80 ° C., solution dosage 1% o.w.f, process time 80 min): 3 ppm
Leaching of active ingredients (in ppm) (exhaust 80 ° C., solution dosage 1% o.w.f, process time 90 min): 8 ppm
limit on the quantity of the agent that can be adhered to the textile in a non-leaching or substantially non-leaching manner (from Experimental examples I.1 and I.4): about 0.01 % o.w.f.
Leaching of active ingredients (mixture 1 gm/lit each): 12 ppm
Leaching of active ingredients (mixture 1 gm/lit each, after Washing): 0.4 ppm
Leaching of active ingredients (mixture 5 gm/lit each): 28 ppm
Leaching of active ingredients (mixture 5 gm/lit each, after Washing): 0.6 ppm
Leaching of active ingredients (mixture 10 gm/lit each): 38 ppm
Leaching of active ingredients (mixture 10 gm/lit each, after Washing): 1.0 ppm
Leaching Test-Leaching of active ingredients (single agent 5 gm/lit, curing 120° C.): 9 ppm
Leaching Test-Leaching of active ingredients (single agent 5 gm/lit, curing 140° C.): 5 ppm
Leaching Test-Leaching of active ingredients (single agent 5 gm/lit, curing 150° C.): 3 ppm
Leaching Test-Leaching of active ingredients (single agent 5 gm/lit, curing 160° C.): 2 ppm
Leaching Test-Leaching of active ingredients (single agent 5 gm/lit, curing 180° C.): 1 ppm
Leaching Test-Leaching of active ingredients (single agent 10 gm/lit, curing 120° C.): 16 ppm
Leaching Test-Leaching of active ingredients (single agent 10 gm/lit, curing 140° C.): 15 ppm
Leaching Test-Leaching of active ingredients (single agent 10 gm/lit, curing 150° C.): 12 ppm
Leaching Test-Leaching of active ingredients (single agent 10 gm/lit, curing 160° C.): 9 ppm
Leaching Test-Leaching of active ingredients (single agent 10 gm/lit, curing 180° C.): 2 ppm
Leaching of active ingredient (in ppm) (solution dosage 0.10% o.w.f, exhaust temperature 40° C., process time 60 min): 0 ppm
Leaching of active ingredient (in ppm) (solution dosage 0.10% o.w.f, exhaust temperature 60° C., process time 60 min): 0 ppm
Leaching of active ingredient (in ppm) (solution dosage 0.10% o.w.f, exhaust temperature 65° C., process time 60 min): 0 ppm
Leaching of active ingredient (in ppm) (solution dosage 0.10% o.w.f, exhaust temperature 70° C., process time 60 min): 0 ppm
Leaching of active ingredient (in ppm) (solution dosage 0.10% o.w.f, exhaust temperature 75° C., process time 60 min): 0 ppm
Leaching of active ingredient (in ppm) (solution dosage 0.10% o.w.f, exhaust temperature 80° C., process time 60 min): 0 ppm
Leaching of active ingredient (in ppm) (solution dosage 0.10% o.w.f, exhaust temperature 85° C., process time 60 min): 2 ppm
Leaching of active ingredient (in ppm) (solution dosage 0.10% o.w.f, exhaust temperature 90° C., process time 60 min): 2 ppm
Leaching of active ingredient (in ppm) (solution dosage 0.10% o.w.f, exhaust temperature 95° C., process time 60 min): 2 ppm
Leaching of active ingredient (in ppm) (solution dosage 0.20% o.w.f, exhaust temperature 40° C., process time 60 min): 0 ppm
Leaching of active ingredient (in ppm) (solution dosage 0.20% o.w.f, exhaust temperature 60° C., process time 60 min): 0 ppm
Leaching of active ingredient (in ppm) (solution dosage 0.20% o.w.f, exhaust temperature 65° C., process time 60 min): 0 ppm
Leaching of active ingredient (in ppm) (solution dosage 0.20% o.w.f, exhaust temperature 70° C., process time 60 min): 0 ppm
Leaching of active ingredient (in ppm) (solution dosage 0.20% o.w.f, exhaust temperature 75° C., process time 60 min): 0 ppm
Leaching of active ingredient (in ppm) (solution dosage 0.20% o.w.f, exhaust temperature 80° C., process time 60 min): 0 ppm
Leaching of active ingredient (in ppm) (solution dosage 0.20% o.w.f, exhaust temperature 85° C., process time 60 min): 4 ppm
Leaching of active ingredient (in ppm) (solution dosage 0.20% o.w.f, exhaust temperature 90° C., process time 60 min): 4 ppm
Leaching of active ingredient (in ppm) (solution dosage 0.20% o.w.f, exhaust temperature 95° C., process time 60 min): 4 ppm
Leaching of active ingredient (in ppm) (solution dosage 0.50% o.w.f, exhaust temperature 40° C., process time 60 min): 0 ppm
Leaching of active ingredient (in ppm) (solution dosage 0.50% o.w.f, exhaust temperature 60° C., process time 60 min): 3 ppm
Leaching of active ingredient (in ppm) (solution dosage 0.50% o.w.f, exhaust temperature 65° C., process time 60 min): 2 ppm
Leaching of active ingredient (in ppm) (solution dosage 0.50% o.w.f, exhaust temperature 70° C., process time 60 min): 1 ppm
Leaching of active ingredient (in ppm) (solution dosage 0.50% o.w.f, exhaust temperature 75° C., process time 60 min): 1 ppm
Leaching of active ingredient (in ppm) (solution dosage 0.50% o.w.f, exhaust temperature 80° C., process time 60 min): 1 ppm
Leaching of active ingredient (in ppm) (solution dosage 0.50% o.w.f, exhaust temperature 85° C., process time 60 min): 5 ppm
Leaching of active ingredient (in ppm) (solution dosage 0.50% o.w.f, exhaust temperature 90° C., process time 60 min): 7 ppm
Leaching of active ingredient (in ppm) (solution dosage 0.50% o.w.f, exhaust temperature 95° C., process time 60 min): 8 ppm
Leaching of active ingredient (in ppm) (solution dosage 0.80% o.w.f, exhaust temperature 40° C., process time 60 min): 0 ppm
Leaching of active ingredient (in ppm) (solution dosage 0.80% o.w.f, exhaust temperature 60° C., process time 60 min): 4 ppm
Leaching of active ingredient (in ppm) (solution dosage 0.80% o.w.f, exhaust temperature 65° C., process time 60 min): 3 ppm
Leaching of active ingredient (in ppm) (solution dosage 0.80% o.w.f, exhaust temperature 70° C., process time 60 min): 2 ppm
Leaching of active ingredient (in ppm) (solution dosage 0.80% o.w.f, exhaust temperature 75° C., process time 60 min): 3 ppm
Leaching of active ingredient (in ppm) (solution dosage 0.80% o.w.f, exhaust temperature 80° C., process time 60 min): 1 ppm
Leaching of active ingredient (in ppm) (solution dosage 0.80% o.w.f, exhaust temperature 85° C., process time 60 min): 7 ppm
Leaching of active ingredient (in ppm) (solution dosage 0.80% o.w.f, exhaust temperature 90° C., process time 60 min): 7 ppm
Leaching of active ingredient (in ppm) (solution dosage 0.80% o.w.f, exhaust temperature 95° C., process time 60 min): 8 ppm
Leaching of active ingredient (in ppm) (solution dosage 1.00% o.w.f, exhaust temperature 40° C., process time 60 min): 0 ppm
Leaching of active ingredient (in ppm) (solution dosage 1.00% o.w.f, exhaust temperature 60° C., process time 60 min): 7 ppm
Leaching of active ingredient (in ppm) (solution dosage 1.00% o.w.f, exhaust temperature 65° C., process time 60 min): 7 ppm
Leaching of active ingredient (in ppm) (solution dosage 1.00% o.w.f, exhaust temperature 70° C., process time 60 min): 3 ppm
Leaching of active ingredient (in ppm) (solution dosage 1.00% o.w.f, exhaust temperature 75° C., process time 60 min): 4 ppm
Leaching of active ingredient (in ppm) (solution dosage 1.00% o.w.f, exhaust temperature 80° C., process time 60 min): 1 ppm
Leaching of active ingredient (in ppm) (solution dosage 1.00% o.w.f, exhaust temperature 85° C., process time 60 min): 8 ppm
Leaching of active ingredient (in ppm) (solution dosage 1.00% o.w.f, exhaust temperature 90° C., process time 60 min): 9 ppm
Leaching of active ingredient (in ppm) (solution dosage 1.00% o.w.f, exhaust temperature 95° C., process time 60 min): 10 ppm
